pKi: −log10 of the molar value.
What was measured:
[1] = Human plasma pharmacokinetics, single ascending dose study; format: in vivo, human healthy subjects; settings: for AUC0–t / AUCinf / Cmax / Cmax/dose / t½: geometric mean (CV%); for tmax: median (min–max)
Description: Twenty-seven healthy male and female subjects (18 male and 9 female) of any ethnic origin (24 White, 1 Asian, 1 Black, 1 Black/Caribbean White), aged between 19 and 64 years, and with a body mass index (BMI) between 18.0 and 32.0 kg/m^2, were selected for this study. Inclusion criteria for enrollment followed the standard practice for first-in-man studies.
This was a randomized, double-blind, placebo-controlled, sequential, single-ascending dose study conducted at a single site with the objective of evaluating the safety, tolerability, pharmacokinetics (PK) and pharmacodynamics of MIV-711. Subjects were randomized into 3 groups using a computer-generated pseudo-random permutation procedure. Each group consisted of 9 subjects with at least 3 subjects of each gender per group and subjects participated in 1–2 treatment periods. There was a minimum of 10 days between dose escalations and a minimum of 20 days between dosing occasions for individual subjects. For each subsequent dosing occasion, the decision to escalate the dose to the next level was taken after a thorough review of the safety, tolerability and PK data. In each treatment period, 7 subjects received MIV-711 and 2 received placebo (comprising of 1 subject of each gender). Dosing occurred on the morning of Day 1 following an overnight fast and subjects were kept in the fasted state until approximately 4.5 h after dosing. MIV-711 was given as a combination of 10 or 40 mg hard gelatin capsules, while placebo was given in similar capsules of identical appearance.
Blood samples were collected at pre-dose, 0.5, 1, 1.5, 2, 3, 4, 6, 8, 12, 16, 24, 36 and 48 h post-dose and processed into plasma for the measurement of concentrations of MIV-711. The PK analysis was conducted using WinNonlin Enterprise Version 5.2 (Pharsight Corporation, Mountain View, CA, USA).
The quantification of MIV-711 in monkey plasma was performed by taking 10–50 µL of plasma and mixing with 3 volumes of acetonitrile (10 s, Vibrofix). The sample was centrifuged (10 min, 20,000×g, 7 °C) and 5 µL of the supernatant was injected onto the liquid chromatography with tandem mass spectrometric detection (LC–MS/MS) system. The lowest concentration of the standard curves and the lower limit of quantification (LLOQ) was 1 nmol/L of MIV-711. The human plasma samples were prepared by protein precipitation for sample extraction followed by LC–MS/MS. The lowest concentration of the standard curves and the LLOQ was 4 nmol/L of MIV-711 using 25 µL of plasma.

[2] = target: T1, human cathepsin H (Homo sapiens, UniProt P09668); test: Enzyme assay, human cathepsin H; format: biochemical
T1 construct: purchased Athens Research Technology
Description: Recombinant cathepsin K enzymes from all species were expressed in E. coli, purified and activated. Human cathepsin F and cathepsin S were expressed in Baculovirus, purified and activated. Purified human cathepsins B and H (Athens Research Technology), cathepsin L (Calbiochem), and cathepsin V (R & D Systems) were purchased.
H-D-Ala_Leu-Lys-AMC was used as the substrate in assays of cathepsin K from non-rodent species (human, dog, rabbit and guinea pig), and Z-Leu-Arg-AMC was used as the substrate in assays of cathepsin K from rodent species (mouse and rat). […]
Assays were carried out in white polystyrene 96-well plates in a final volume of 100 µL. […] Plates were read in a Fluoroskan Ascent (Thermo Labsystems, Helsinki, Finland) in kinetic mode, with excitation and emission filters of 390 and 460 nm, respectively. Rates were determined by linear regression of the fluorescence/time data in Excel. Rates were fitted by non-linear regression to either the competitive inhibition equation, with the substrate concentration fixed at the value in the assay and the KM fixed to the value previously determined, or the IC50 equation using GraphPad Prism (GraphPad, version 6, San Diego, USA) to obtain Ki or IC50 values, respectively.

T1 sequence (P09668 98-335): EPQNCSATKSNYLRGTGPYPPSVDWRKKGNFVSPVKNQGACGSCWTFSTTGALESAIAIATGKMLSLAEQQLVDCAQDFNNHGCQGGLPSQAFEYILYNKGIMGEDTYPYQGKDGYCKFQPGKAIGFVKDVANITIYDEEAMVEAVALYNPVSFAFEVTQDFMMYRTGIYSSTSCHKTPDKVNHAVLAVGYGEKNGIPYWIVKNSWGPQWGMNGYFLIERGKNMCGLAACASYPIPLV

For `C#C[C@@H]1CN(C(=O)[C@H](CC(C)C)NC(=O)c2ccc(-c3nc(N4CCN(C)CC4)sc3F)cc2)[C@@H]2C(=O)CO[C@H]12` [MIV-711], the “AUC0–t” value ([1]; 20 mg single oral dose) was 0.128 (36) µmol/L × h, the AUCinf ([1]; 20 mg single oral dose) was 0.158 (32) µmol/L × h and the Cmax ([1]; 20 mg single oral dose) was 33 nM. For the same molecule, the Cmax/dose ([1]; 20 mg single oral dose) was 0.12 (26), the t½ ([1]; 20 mg single oral dose) was 3.4 (13) h and the tmax ([1]; 20 mg single oral dose) was 1.0 (0.50–2.0) h. The “AUC0–24h” value ([1]; 100 mg) was 1.1 µM·h, the “AUC0–t” value ([1]; 100 mg single oral dose) was 1.13 (38) µmol/L × h and the AUCinf ([1]; 100 mg single oral dose) was 1.17 (37) µmol/L × h. For the same molecule, the Cmax ([1]; 100 mg single oral dose) was 293 nM, the Cmax/dose ([1]; 100 mg single oral dose) was 0.21 (23) and the t½ ([1]; 100 mg single oral dose) was 3.7 (15) h. The tmax ([1]; 100 mg single oral dose) was 1.0 (1.0–2.2) h, the “Plasma levels at 24 h post-dose” value ([1]; 100 mg, mostly below LLOQ) was less than 4 nM and the “AUC0–t” value ([1]; 200 mg single oral dose) was 2.45 (36) µmol/L × h. For the same molecule, the AUCinf ([1]; 200 mg single oral dose) was 2.51 (35) µmol/L × h, the Cmax ([1]; 200 mg single oral dose) was 756 nM and the Cmax/dose ([1]; 200 mg single oral dose) was 0.27 (36). The t½ ([1]; 200 mg single oral dose) was 5.0 (16) h, the tmax ([1]; 200 mg single oral dose) was 1.0 (0.50–1.0) h and the “AUC0–t” value ([1]; 400 mg single oral dose) was 4.62 (33) µmol/L × h. For the same molecule, the AUCinf ([1]; 400 mg single oral dose) was 4.75 (32) µmol/L × h, the Cmax ([1]; 400 mg single oral dose) was 1180 nM and the Cmax/dose ([1]; 400 mg single oral dose) was 0.23 (37). For the same molecule, the t½ ([1]; 400 mg single oral dose) was 6.5 (44) h, the tmax ([1]; 400 mg single oral dose) was 1.0 (1.0–1.5) h and the “AUC0–t” value ([1]; 600 mg single oral dose) was 6.75 (30) µmol/L × h. For the same molecule, the AUCinf ([1]; 600 mg single oral dose) was 6.89 (30) µmol/L × h, the Cmax ([1]; 600 mg single oral dose) was 1390 nM and the Cmax/dose ([1]; 600 mg single oral dose) was 0.17 (38). The t½ ([1]; 600 mg single oral dose) was 8.3 (34) h, the tmax ([1]; 600 mg single oral dose) was 1.0 (1.0–3.0) h and the Excreted renally unchanged ([1]; data not shown) was “less than 1%”. The “mean terminal t1/2” value ([1]; over the 20–600 mg dose range) was 3.4 to 8.3 h, the median tmax ([1]; single oral doses) was 1 h and the pKi [2] was less than 5.00.

Source: article PMC5944028, “Nonclinical and clinical pharmacological characterization of the potent and selective cathepsin K inhibitor MIV-711” (Journal of Translational Medicine, 2018)
